In the NIST ThermoML archive (doi:10.1016/j.jct.2005.03.012):

Experiment: excess molar enthalpy (molar enthalpy of mixing); xn = mol fraction of the nth substance listed
Conditions: Liquid

CO [methanol] + O
Conditions | excess molar enthalpy [kJ/mol]
355.11 K, 5000 kPa, x1 = 0.3 | -0.4
373.15 K, 5000 kPa, x1 = 0.1 | -0.162
373.15 K, 5000 kPa, x1 = 0.2 | -0.222
373.15 K, 5000 kPa, x1 = 0.3 | -0.232
373.15 K, 5000 kPa, x1 = 0.4 | -0.221
373.15 K, 5000 kPa, x1 = 0.5 | -0.207
373.15 K, 5000 kPa, x1 = 0.6 | -0.195
373.15 K, 5000 kPa, x1 = 0.7 | -0.178
373.15 K, 5000 kPa, x1 = 0.8 | -0.151
373.15 K, 5000 kPa, x1 = 0.9 | -0.0975
373.82 K, 5000 kPa, x1 = 0.9 | -0.0949
374.46 K, 5000 kPa, x1 = 0.8 | -0.143
374.83 K, 5000 kPa, x1 = 0.7 | -0.165
375.03 K, 5000 kPa, x1 = 0.1 | -0.158
375.03 K, 5000 kPa, x1 = 0.2 | -0.205
375.03 K, 5000 kPa, x1 = 0.3 | -0.212
375.03 K, 5000 kPa, x1 = 0.4 | -0.201
375.03 K, 5000 kPa, x1 = 0.5 | -0.188
375.03 K, 5000 kPa, x1 = 0.6 | -0.177
375.03 K, 5000 kPa, x1 = 0.7 | -0.163
375.03 K, 5000 kPa, x1 = 0.8 | -0.14
375.03 K, 5000 kPa, x1 = 0.9 | -0.0895
375.05 K, 5000 kPa, x1 = 0.1 | -0.152
375.09 K, 5000 kPa, x1 = 0.6 | -0.177
375.26 K, 5000 kPa, x1 = 0.5 | -0.187
375.35 K, 5000 kPa, x1 = 0.9 | -0.0886
375.45 K, 5000 kPa, x1 = 0.4 | -0.198
375.66 K, 5000 kPa, x1 = 0.3 | -0.208
375.68 K, 5000 kPa, x1 = 0.2 | -0.202
376.12 K, 5000 kPa, x1 = 0.8 | -0.133
376.69 K, 5000 kPa, x1 = 0.7 | -0.15
376.94 K, 5000 kPa, x1 = 0.6 | -0.16
376.98 K, 5000 kPa, x1 = 0.1 | -0.142
377.07 K, 5000 kPa, x1 = 0.5 | -0.169
377.26 K, 5000 kPa, x1 = 0.4 | -0.179
377.41 K, 5000 kPa, x1 = 0.3 | -0.19
377.47 K, 5000 kPa, x1 = 0.2 | -0.187
420.87 K, 10000 kPa, x1 = 0.4 | 0.209
420.97 K, 2000 kPa, x1 = 0.4 | 0.195
420.98 K, 5000 kPa, x1 = 0.4 | 0.202
420.98 K, 5000 kPa, x1 = 0.5 | 0.213
421.12 K, 10000 kPa, x1 = 0.6 | 0.205
421.18 K, 5000 kPa, x1 = 0.6 | 0.201
421.19 K, 2000 kPa, x1 = 0.6 | 0.191
421.39 K, 5000 kPa, x1 = 0.3 | 0.161
421.51 K, 5000 kPa, x1 = 0.7 | 0.169
421.69 K, 10000 kPa, x1 = 0.2 | 0.118
421.8 K, 2000 kPa, x1 = 0.2 | 0.11
421.84 K, 5000 kPa, x1 = 0.2 | 0.113
421.92 K, 10000 kPa, x1 = 0.8 | 0.123
421.97 K, 2000 kPa, x1 = 0.8 | 0.108
421.98 K, 5000 kPa, x1 = 0.8 | 0.118
422.47 K, 5000 kPa, x1 = 0.9 | 0.059
422.53 K, 5000 kPa, x1 = 0.1 | 0.0476
422.8 K, 10000 kPa, x1 = 0.4 | 0.225
422.84 K, 5000 kPa, x1 = 0.4 | 0.218
422.84 K, 5000 kPa, x1 = 0.5 | 0.229
422.86 K, 2000 kPa, x1 = 0.4 | 0.209
423.02 K, 10000 kPa, x1 = 0.6 | 0.221
423.08 K, 2000 kPa, x1 = 0.6 | 0.205
423.12 K, 5000 kPa, x1 = 0.6 | 0.214
423.14 K, 5000 kPa, x1 = 0.7 | 0.181
423.15 K, 2000 kPa, x1 = 0.2 | 0.116
423.15 K, 2000 kPa, x1 = 0.4 | 0.21
423.15 K, 2000 kPa, x1 = 0.6 | 0.203
423.15 K, 2000 kPa, x1 = 0.8 | 0.113
423.15 K, 5000 kPa, x1 = 0.1 | 0.0495
423.15 K, 5000 kPa, x1 = 0.2 | 0.12
423.15 K, 5000 kPa, x1 = 0.3 | 0.173
423.15 K, 5000 kPa, x1 = 0.4 | 0.218
423.15 K, 5000 kPa, x1 = 0.5 | 0.23
423.15 K, 5000 kPa, x1 = 0.6 | 0.215
423.15 K, 5000 kPa, x1 = 0.7 | 0.176
423.15 K, 5000 kPa, x1 = 0.8 | 0.123
423.15 K, 5000 kPa, x1 = 0.9 | 0.0599
423.15 K, 10000 kPa, x1 = 0.2 | 0.126
423.15 K, 10000 kPa, x1 = 0.4 | 0.225
423.15 K, 10000 kPa, x1 = 0.6 | 0.222
423.15 K, 10000 kPa, x1 = 0.8 | 0.127
423.37 K, 5000 kPa, x1 = 0.3 | 0.174
423.39 K, 5000 kPa, x1 = 0.8 | 0.125
423.49 K, 2000 kPa, x1 = 0.8 | 0.115
423.62 K, 10000 kPa, x1 = 0.8 | 0.128
423.64 K, 10000 kPa, x1 = 0.2 | 0.132
423.68 K, 5000 kPa, x1 = 0.2 | 0.125
423.69 K, 2000 kPa, x1 = 0.2 | 0.121
423.76 K, 5000 kPa, x1 = 0.9 | 0.0632
424.45 K, 5000 kPa, x1 = 0.1 | 0.0554
424.96 K, 5000 kPa, x1 = 0.1 | 0.0569
424.96 K, 5000 kPa, x1 = 0.2 | 0.132
424.96 K, 5000 kPa, x1 = 0.3 | 0.185
424.96 K, 5000 kPa, x1 = 0.4 | 0.234
424.96 K, 5000 kPa, x1 = 0.5 | 0.245
424.96 K, 5000 kPa, x1 = 0.6 | 0.236
424.96 K, 5000 kPa, x1 = 0.7 | 0.189
424.96 K, 5000 kPa, x1 = 0.8 | 0.133
424.96 K, 5000 kPa, x1 = 0.9 | 0.0668
425 K, 2000 kPa, x1 = 0.2 | 0.128
425 K, 2000 kPa, x1 = 0.4 | 0.226
425 K, 2000 kPa, x1 = 0.6 | 0.228
425 K, 2000 kPa, x1 = 0.8 | 0.12
425.1 K, 10000 kPa, x1 = 0.2 | 0.14
425.1 K, 10000 kPa, x1 = 0.4 | 0.242
425.1 K, 10000 kPa, x1 = 0.6 | 0.244
